Values quoted from earlier work, collected in patent US20250114344A1, “COMBINATORIAL PHARMACOTHERAPY FOR THE RESTORATION OF NEURO-FUNCTION AND COMBINATORIAL PHARMACOLOGICAL COMPOSITION THEREFORE” (Neuro-Innovators, LLC., priority 2022, published 2025).

How the values were obtained:
MANF (a form of BDNF) = conditions: Prefrontal Cortex and Striatum, compared to controls
[1] = compared with aspirin; fewer hemorrhagic events
CYP3A4 = CYP3A4 (Homo sapiens, UniProt P08684)
CYP3A4, sequence (P08684 whole entry, species assumed): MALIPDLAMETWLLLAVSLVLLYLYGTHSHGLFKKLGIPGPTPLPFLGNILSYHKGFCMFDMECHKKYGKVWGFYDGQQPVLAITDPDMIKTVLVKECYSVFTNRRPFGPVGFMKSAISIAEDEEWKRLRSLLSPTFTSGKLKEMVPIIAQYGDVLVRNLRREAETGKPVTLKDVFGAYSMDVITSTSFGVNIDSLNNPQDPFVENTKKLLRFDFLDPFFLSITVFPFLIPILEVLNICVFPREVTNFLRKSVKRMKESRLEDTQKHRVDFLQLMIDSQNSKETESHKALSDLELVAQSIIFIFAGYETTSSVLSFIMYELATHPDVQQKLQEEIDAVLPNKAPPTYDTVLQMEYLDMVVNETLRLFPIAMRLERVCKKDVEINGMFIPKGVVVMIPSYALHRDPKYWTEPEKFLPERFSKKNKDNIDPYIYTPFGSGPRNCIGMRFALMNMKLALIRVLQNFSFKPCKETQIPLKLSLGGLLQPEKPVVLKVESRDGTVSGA

interaction with CYP3A4 (CYP3A4)	SMILES	MANF expression (MANF (a form of BDNF))	incidence of recurrent stroke [1]
	O=C([O-])[O-].[Li+].[Li+] [lithium, Lithium Carbonate]	significant increase	
substrate for CYP3A4	O=C1CCc2cc(OCCCCc3nnnn3C3CCCCC3)ccc2N1 [Cilostazol]		significantly reduce the incidence of recurrent stroke
